One experiment concerns the target T1, wild type Bcr-abl (Homo sapiens, UniProt P00519).
T1 construct: the major C-terminal part (exons 2-11) of the c-abl gene; expressed in transfected cells; host or cells: murine 32D (32D-p210) or Ba/F3 cells; the other entry of the earlier key: BCR (P11274, Breakpoint cluster region protein)
The experiment is described as follows: Antiproliferative effect on cells expressing wild type Bcr-abl. It counts as cell-based. Particulars: cell proliferation. As for the experimental part: 32D-p210 cells are plated into 96 well TC plates at a density of 15,000 cells per well. 50 μL of two fold serial dilutions of the test compound (Cmax is 40 μM) are added to each well (STI571 is included as a positive control). After incubating the cells for 48 hours at 37° C., 5% CO2, 15 μL of MTT (Promega) is added to each well and the cells are incubated for an additional 5 hours. The optical density at 570 nm is quantified spectrophotometrically and IC50 values, the concentration of compound required for 50% inhibition, determined from a dose response curve.
Compounds of the invention are tested for their antiproliferative effect on Ba/F3 cells expressing either wild type or the mutant forms of BCR-Abl (G250E, E255V, T315I, F317L, M351T) that confers resistance or diminished sensitivity to STI571. The antiproliferative effect of these compounds on the mutant-BCR-Abl expressing cells and on the non transformed cells were tested at 10, 3.3, 1.1 and 0.37 μM as described above (in media lacking IL3). The IC50 values of the compounds lacking toxicity on the untransformed cells were determined from the dose response curves obtained as describe above.

Another experiment deals with PDGFRβ (Homo sapiens, UniProt P09619). Put plainly: Inhibition of PDGFRβ. It counts as biochemical. The method, then:
Compounds selectively inhibiting the proliferation of these BCR-Abl transformed cells are tested for anti-proliferative activity on Ba/F3 cells expressing either wild type or the mutant forms of Bcr-abl. In addition, compounds are assayed to measure their capacity to inhibit FGFR35 (in an enzyme and cellular assay), FLT3, PDGFRβ, trkB, c-SRC, BMX, SGK, Tie2, Lck, JNK2α2, MKK4, c-RAF, MKK6, SAPK2α and SAPK2β kinases.

The target of experiment [1] is T2, FGFR35 (Homo sapiens, UniProt P22607). The experiment is described as follows: FGFR35 (enzymatic assay), HTRF. Format: biochemical. Set-up: purchased Upstate. To be noted: purified FGFR35, 3 μM ATP; read-out: IC50 for the FGFR35 enzyme assay. The method, then: Kinase activity assay with purified FGFR35 (Upstate) is carried out in a final volume of 10 μL containing 0.25 μg/mL of enzyme in kinase buffer (30 mM Tris-HCl pH7.5, 15 mM MgCl2, 4.5 mM MnCl2, 15 μM Na3VO4 and 50 μg/mL BSA), and substrates (5 μg/mL biotin-poly-EY(Glu, Tyr) (CIS-US, Inc.) and 3 μM ATP). Two solutions are made: the first solution of 5 μl contains the FGFR35 enzyme in kinase buffer was first dispensed into 384—format ProxiPlate® (Perkin-Elmer) followed by adding 50 nL of compounds dissolved in DMSO, then 5 μl of second solution contains the substrate (poly-EY) and ATP in kinase buffer was added to each wells. The reactions are incubated at room temperature for one hour, stopped by adding 10 μL of HTRF detection mixture, which contains 30 mM Tris-HCl pH7.5, 0.5 M KF, 50 mM ETDA, 0.2 mg/mL BSA, 15 μg/mL streptavidin-XL665 (CIS-US, Inc.) and 150 ng/mL cryptate conjugated anti-phosphotyrosine antibody (CIS-US, Inc.). After one hour of room temperature incubation to allow for streptavidin-biotin interaction, time resolved florescent signals are read on Analyst GT (Molecular Devices Corp.). IC50 values are calculated by linear regression analysis of the percentage inhibition of each compound at 12 concentrations (1:3 dilution from 50 μM to 0.28 nM).
Target sequence in this assay (P22607 23-806): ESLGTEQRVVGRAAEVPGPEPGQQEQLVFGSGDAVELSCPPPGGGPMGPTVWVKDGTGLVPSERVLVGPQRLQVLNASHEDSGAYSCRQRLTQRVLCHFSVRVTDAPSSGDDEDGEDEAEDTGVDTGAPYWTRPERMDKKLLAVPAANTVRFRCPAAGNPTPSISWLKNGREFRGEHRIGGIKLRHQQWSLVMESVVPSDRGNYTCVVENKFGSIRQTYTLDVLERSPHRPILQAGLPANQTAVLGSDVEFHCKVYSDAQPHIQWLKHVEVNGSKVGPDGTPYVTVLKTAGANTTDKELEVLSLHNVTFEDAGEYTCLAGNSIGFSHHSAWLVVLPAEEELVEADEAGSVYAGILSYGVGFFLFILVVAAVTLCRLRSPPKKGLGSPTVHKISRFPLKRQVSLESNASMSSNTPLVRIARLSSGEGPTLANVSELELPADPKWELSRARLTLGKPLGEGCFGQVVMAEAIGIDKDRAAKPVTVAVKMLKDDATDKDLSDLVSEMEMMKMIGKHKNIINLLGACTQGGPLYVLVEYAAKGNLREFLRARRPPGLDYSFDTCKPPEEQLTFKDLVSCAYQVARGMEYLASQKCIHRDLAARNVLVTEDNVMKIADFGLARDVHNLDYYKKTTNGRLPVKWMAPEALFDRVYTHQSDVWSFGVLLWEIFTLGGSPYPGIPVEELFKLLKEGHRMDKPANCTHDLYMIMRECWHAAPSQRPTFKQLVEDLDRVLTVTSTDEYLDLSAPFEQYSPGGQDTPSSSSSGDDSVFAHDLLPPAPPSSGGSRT
In general terms: Time-resolved FRET reads energy transfer from a long-lived donor to a nearby acceptor.

The target of experiment [2] is T2, FGFR35. The experiment is described as follows: FGFR35 (cellular assay), proliferation of Ba/F3-TEL-FGFR35 cells. Format: cell-based. The arrangement: fused on or other part: N-terminal part of TEL (ETV6), which acts as the oligomerising partner; it is fused to the part of FGFR3 that carries the kinase; P41212 (Transcription factor ETV6). To be noted: 48 hours, read-out: IC50 for the FGFR35 cellular assay. The method, then:
Compounds of the invention are tested for their ability to inhibit transformed Ba/F3-TEL-FGFR35 cells proliferation, which is depended on FGFR35 cellular kinase activity. Ba/F3-TEL-FGFR35 are cultured up to 800,000 cells/mL in suspension, with RPMI 1640 supplemented with 10% fetal bovine serum as the culture medium. Cells are dispensed into 384-well format plate at 5000 cell/well in 50 μL culture medium. Compounds of the invention are dissolved and diluted in dimethylsulfoxide (DMSO). Twelve points 1:3 serial dilutions are made into DMSO to create concentrations gradient ranging typically from 10 mM to 0.05 μM. Cells are added with 50 nL of diluted compounds and incubated for 48 hours in cell culture incubator. AlamarBlue® (TREK Diagnostic Systems), which can be used to monitor the reducing environment created by proliferating cells, are added to cells at final concentration of 10%. After additional four hours of incubation in a 37° C. cell culture incubator, fluorescence signals from reduced AlamarBlue® (Excitation at 530 nm, Emission at 580 nm) are quantified on Analyst GT (Molecular Devices Corp.). IC50 values are calculated by linear regression analysis of the percentage inhibition of each compound at 12 concentrations.
Target sequence in this assay (P22607 472-761 limits assumed, stated change not applied): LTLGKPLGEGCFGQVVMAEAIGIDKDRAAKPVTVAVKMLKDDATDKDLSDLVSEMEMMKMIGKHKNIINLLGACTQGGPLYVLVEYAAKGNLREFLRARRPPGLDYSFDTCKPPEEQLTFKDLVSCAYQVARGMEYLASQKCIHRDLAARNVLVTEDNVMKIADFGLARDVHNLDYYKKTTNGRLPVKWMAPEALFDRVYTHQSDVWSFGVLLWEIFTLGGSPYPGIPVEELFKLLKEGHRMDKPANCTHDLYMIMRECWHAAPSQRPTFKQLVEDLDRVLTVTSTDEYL

The values below come from patent US8552002B2 (Novartis AG, priority 2004, dated 2013).

Chain of PDGFRβ (P09619 33-1106, species assumed): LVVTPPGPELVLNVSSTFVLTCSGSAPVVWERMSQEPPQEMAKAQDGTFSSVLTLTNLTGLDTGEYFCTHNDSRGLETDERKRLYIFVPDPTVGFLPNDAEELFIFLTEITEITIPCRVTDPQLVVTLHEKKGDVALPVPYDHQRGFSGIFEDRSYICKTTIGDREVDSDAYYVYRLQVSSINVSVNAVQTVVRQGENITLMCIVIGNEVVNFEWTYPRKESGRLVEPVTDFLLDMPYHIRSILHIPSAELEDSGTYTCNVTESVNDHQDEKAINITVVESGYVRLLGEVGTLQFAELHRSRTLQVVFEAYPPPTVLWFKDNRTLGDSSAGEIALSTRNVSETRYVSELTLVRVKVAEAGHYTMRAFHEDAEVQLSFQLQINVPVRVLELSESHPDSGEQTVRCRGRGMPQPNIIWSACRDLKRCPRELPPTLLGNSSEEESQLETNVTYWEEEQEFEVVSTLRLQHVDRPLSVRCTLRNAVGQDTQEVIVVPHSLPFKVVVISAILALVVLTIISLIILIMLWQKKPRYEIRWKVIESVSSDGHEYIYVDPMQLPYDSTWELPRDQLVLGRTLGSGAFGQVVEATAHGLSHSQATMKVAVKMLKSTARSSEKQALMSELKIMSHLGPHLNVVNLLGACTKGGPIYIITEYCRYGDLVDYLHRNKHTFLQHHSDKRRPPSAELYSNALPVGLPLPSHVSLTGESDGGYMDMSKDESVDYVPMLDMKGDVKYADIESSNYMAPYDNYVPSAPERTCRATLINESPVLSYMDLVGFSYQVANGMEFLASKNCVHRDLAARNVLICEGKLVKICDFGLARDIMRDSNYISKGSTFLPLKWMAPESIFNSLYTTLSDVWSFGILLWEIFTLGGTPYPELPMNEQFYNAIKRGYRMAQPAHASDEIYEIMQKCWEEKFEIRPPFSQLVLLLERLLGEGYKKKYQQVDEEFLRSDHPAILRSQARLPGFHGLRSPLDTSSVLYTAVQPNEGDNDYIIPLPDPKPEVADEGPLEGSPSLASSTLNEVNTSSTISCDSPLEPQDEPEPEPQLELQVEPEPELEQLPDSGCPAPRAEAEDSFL
T1 sequence (P00519 with tags, fused parts or gaps): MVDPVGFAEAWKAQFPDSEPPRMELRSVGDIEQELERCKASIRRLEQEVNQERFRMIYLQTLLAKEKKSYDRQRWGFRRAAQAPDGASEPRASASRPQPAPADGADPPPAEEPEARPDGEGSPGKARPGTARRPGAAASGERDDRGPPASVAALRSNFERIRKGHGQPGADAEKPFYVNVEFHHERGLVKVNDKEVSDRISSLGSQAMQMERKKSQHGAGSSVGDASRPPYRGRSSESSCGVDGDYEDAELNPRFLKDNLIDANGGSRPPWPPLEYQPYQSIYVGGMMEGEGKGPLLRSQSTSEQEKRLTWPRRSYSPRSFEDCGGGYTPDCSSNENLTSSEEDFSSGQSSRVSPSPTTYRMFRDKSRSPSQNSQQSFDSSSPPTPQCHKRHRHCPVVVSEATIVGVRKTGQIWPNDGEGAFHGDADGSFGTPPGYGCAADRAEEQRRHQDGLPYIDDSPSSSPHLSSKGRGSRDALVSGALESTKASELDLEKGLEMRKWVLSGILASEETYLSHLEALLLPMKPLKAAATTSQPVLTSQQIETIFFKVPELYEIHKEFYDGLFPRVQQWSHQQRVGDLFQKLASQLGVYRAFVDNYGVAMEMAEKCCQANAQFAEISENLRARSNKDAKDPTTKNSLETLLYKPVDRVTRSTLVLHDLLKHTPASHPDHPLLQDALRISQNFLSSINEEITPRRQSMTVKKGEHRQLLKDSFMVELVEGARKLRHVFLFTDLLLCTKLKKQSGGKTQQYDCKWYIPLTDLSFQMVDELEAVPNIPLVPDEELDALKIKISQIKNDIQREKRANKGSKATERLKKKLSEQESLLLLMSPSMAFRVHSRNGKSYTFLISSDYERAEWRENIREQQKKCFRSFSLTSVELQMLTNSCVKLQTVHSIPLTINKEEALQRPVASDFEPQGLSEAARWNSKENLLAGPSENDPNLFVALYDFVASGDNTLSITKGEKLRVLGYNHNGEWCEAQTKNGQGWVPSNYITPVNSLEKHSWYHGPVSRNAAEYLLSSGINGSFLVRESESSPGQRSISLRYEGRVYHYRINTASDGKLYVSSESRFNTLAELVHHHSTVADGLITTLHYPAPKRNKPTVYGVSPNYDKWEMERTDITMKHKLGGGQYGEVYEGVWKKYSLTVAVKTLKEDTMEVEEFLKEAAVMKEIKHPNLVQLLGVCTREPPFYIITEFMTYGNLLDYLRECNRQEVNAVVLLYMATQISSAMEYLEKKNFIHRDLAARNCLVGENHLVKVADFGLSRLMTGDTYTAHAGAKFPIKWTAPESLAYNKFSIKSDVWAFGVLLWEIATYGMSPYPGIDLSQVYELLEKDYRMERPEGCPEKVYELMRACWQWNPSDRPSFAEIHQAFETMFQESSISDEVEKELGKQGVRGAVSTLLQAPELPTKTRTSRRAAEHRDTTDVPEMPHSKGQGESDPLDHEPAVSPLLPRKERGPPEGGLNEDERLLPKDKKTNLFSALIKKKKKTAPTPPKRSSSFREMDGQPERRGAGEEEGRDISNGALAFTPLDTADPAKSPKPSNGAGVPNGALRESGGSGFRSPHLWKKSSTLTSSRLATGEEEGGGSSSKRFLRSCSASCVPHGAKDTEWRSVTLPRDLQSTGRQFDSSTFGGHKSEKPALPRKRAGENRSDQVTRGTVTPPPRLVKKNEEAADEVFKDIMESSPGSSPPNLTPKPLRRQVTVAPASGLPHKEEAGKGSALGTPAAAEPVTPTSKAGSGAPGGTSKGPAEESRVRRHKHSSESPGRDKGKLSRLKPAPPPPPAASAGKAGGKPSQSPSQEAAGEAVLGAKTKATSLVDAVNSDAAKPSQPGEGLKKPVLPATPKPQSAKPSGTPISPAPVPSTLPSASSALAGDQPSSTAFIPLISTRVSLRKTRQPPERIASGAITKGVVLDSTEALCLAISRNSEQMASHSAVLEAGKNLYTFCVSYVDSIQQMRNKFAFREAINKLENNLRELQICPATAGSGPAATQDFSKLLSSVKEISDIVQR

A word on the IC50: it is the concentration that inhibits the measured activity by half. Regarding `Cc1ccc(NC(=O)c2cccc(C(F)(F)F)c2)cc1NC(=O)N(CCN1CCOCC1)c1cc(N)ncn1` [Example 214, N-{3-[3-(6-Amino-pyrimidin-4-yl)-3-(2-morpholin-4-yl-ethyl)-ureido]-4-methyl-phenyl}-3-trifluoromethyl-benzamide], the results for the IC50 on wild type Bcr-abl, on PDGFRβ and at FGFR35 [1] were 14.9 nM, 0.4 nM and 65 nM, respectively. Also, the GI50 at FGFR35 [2] stood at 49 nM.
